In US20140038920A1, “TFEB PHOSPHORYLATION INHIBITORS AND USES THEREOF” (FONDAZIONE TELETHON, priority 2011, published 2014) one finds EC50 data, which are given here for 46 compounds.

By EC50 is commonly meant the concentration at which the effect is half-maximal.

The structures appear in SMILES notation.

In the test the test system is TFEB. Put plainly: High content TFEB-GFP nuclear translocation assay. Type of test: cell-based. The settings on record: Homo sapiens; mobilization of cytosolic TFEB to the nucleus; TFEB-GFP HeLa cells, 3 h at 37° C. in RPMI, ten concentrations 50 μM to 2.54 nM, 4 runs; read-out: Average EC50. The procedure:
Immunoblotting of protein extracts isolated from HeLa cells treated overnight, as indicated. Membranes were probed with antibodies for p-T202/Y204-ERK1/2, ERK1/2, p-T389-S6K, and S6K to measure ERK and mTORC1 activities. […] FLAG immunoblotting of cytosolic and nuclear fractions isolated from TFEB-3×FLAG HeLa cells cultured in amino acid-free media and subsequently stimulated as indicated for at least 3 h. Correct subcellular fractionation was verified with H3 and tubulin antibodies. […] After 3 h at 37° C. in RPMI medium containing one of each of the compounds, the cells were washed, fixed, and stained with DAPI and photographed by using confocal automated microscopy (Opera high content system, Perkin Elmer). […] Scale bars represent 30 μm. […] The EC50 for each compound was calculated using Prism software (see Materials and Methods for details). […] Antibody used were p-T389-S6K, S6K and FLAG. […] HeLa cells stably expressing Flag-3×TFEB were infected with lentiviruses encoding a Short hairpin (Sh-) RNA targeting luciferase (control) or RagC and RagD mRNAs. […] TFEB localization was detected with a FLAG antibody, whereas tubulin and H3 were used as controls for the cytosolic and nuclear fraction, respectively; levels of S6K phosphorylation were used to test RagC and RagD knockdown efficiency.
After 3 hours at 37° C. in RPMI medium cells were washed, fixed, and stained with DAPI. For the acquisition of the images, ten pictures per each well of the 384-well plate were taken by using confocal automated microscopy (Opera high content system, Perkin Elmer). A dedicated script was developed to perform the analysis of TFEB localization on the different images (Acapella software, Perkin Elmer). The script calculates the ratio value resulting from the average intensity of nuclear TFEB-GFP fluorescence divided by the average of the cytosolic intensity of TFEB-GFP fluorescence. The results were normalized using negative (RPMI medium) and positive (HBSS starvation) control samples in the same plate. The data are represented by the percentage of nuclear translocation at the different concentrations of each compound using Prism software (GraphPad software). The EC50 for each compound was calculated using non-linear regression fitting (Prism software).
In order to find additional small molecules able to induce the translocation of TFEB from the cytosol to the nucleus, the applicants developed a cell-based high content assay using stable HeLa cells overexpressing TFEB fused to the green fluorescent protein (TFEB-GFP). In the assay imaging of treated cells is acquired by an automated confocal microscope (OPERA system) and the analysis of those images with Acapella image software calculates the ratio of the average of fluorescence intensity of TFEB-GFP between the cytosol and nucleus of the cell (see Materials and methods for details). […] They tested ten concentrations for each inhibitor.
Regarding `Nc1ncnc2c1c(-c1cccc(OCc3ccccc3)c1)cn2C1CC(CN2CCCC2)C1` (stereo in doubt) [NVP-ADW742], the half-maximal effective concentration (EC50) is under 7 µM. The result for `CCN1CCN(Cc2ccc(-c3cc4c(N[C@H](C)c5ccccc5)ncnc4[nH]3)cc2)CC1` [AEE788] reads under 7 µM. With `Cc1ccc(C(=O)Nc2ccc(CN3CCN(C)CC3)c(C(F)(F)F)c2)cc1C#Cc1cnc2cccnn12` [AP24534] the figure was under 7 µM; with `Clc1ccc(C2(c3ccc(-c4cn[nH]c4)cc3)CCNCC2)cc1` [AT7867], under 7 µM; with `CN1CCN(CCOc2cc(OC3CCOCC3)c3c(Nc4c(Cl)ccc5c4OCO5)ncnc3c2)CC1` [AZD0530 (Saracatinib), Saracatinib], 7 to 15 µM.

`CCN1CCN(C(=O)Cc2ccc(Nc3ncc(F)c(Nc4ccc(C(=O)Nc5ccccc5Cl)cc4)n3)cc2)CC1` [Aurora A inhibitor 1]: the EC50 was under 7 µM. With `CC[C@@H]1C(=O)N(C)c2cnc(Nc3ccc(C(=O)NC4CCN(C)CC4)cc3OC)nc2N1C1CCCC1` [BI2536], the EC50 was under 7 µM. Turning to `CN(C)C/C=C/C(=O)Nc1cc2c(Nc3ccc(F)c(Cl)c3)ncnc2cc1O[C@H]1CCOC1` [BIBW2992 (Tovok)], the 50% effective concentration (EC50) is under 7 µM.

In the case of `CN(C)Cc1cccc(N/C(=C2\C(=O)Nc3cc(C(=O)N(C)C)ccc32)c2ccccc2)c1` [BIX02189], the EC50 was in the range of 7 to 15 µM.

In the case of `CNC(=O)c1ccc2c(c1)NC(=O)/C2=C(\Nc1cccc(CN(C)C)c1)c1ccccc1` [BIX 02188], the EC50 is over 15 µM. With `Nc1nccc(Oc2ccc(NC(=O)c3c[nH]cc(-c4ccc(F)cc4)c3=O)cc2F)c1Cl` [BMS 794833] the figure was 7 to 15 µM; with `CC(C)c1cnn2c(NCc3ccccc3)cc(NCCCCCCN)nc12` [BS181], under 7 µM.

As for `CN(C)c1ccc(-c2nc3c(N4CCN(CC(=O)Nc5nccs5)CC4)c(Cl)cnc3[nH]2)cc1` [CCT129202], the half-maximal effective concentration (EC50) was under 7 µM. With `Cc1c[nH]c(-c2cnc(NCCNc3ccc(C#N)cn3)nc2-c2ccc(Cl)cc2Cl)n1` [CHIR99021] the figure was under 7 µM. As to `C=CC(=O)Nc1cc2c(Nc3ccc(F)c(Cl)c3)ncnc2cc1OCCCN1CCOCC1` [CI-1033], the EC50 was under 7 µM. For `Cc1nc(N)sc1-c1ccnc(Nc2ccc(N3CCOCC3)cc2)n1` [CYC116], the EC50 was under 7 µM. The result for `COc1cc2c(Oc3ccc4[nH]c(C)cc4c3F)ncnc2cc1OCCCN1CCCC1` [Cediranib (AZD2171), Cediranib] reads under 7 µM; that for `CO[C@H]1C[C@@H]2CC[C@@H](C)[C@@](O)(O2)C(=O)C(=O)N2CCCC[C@H]2C(=O)O[C@H]([C@H](C)C[C@@H]2CC[C@@H](OP(C)(C)=O)[C@H](OC)C2)CC(=O)[C@H](C)/C=C(\C)[C@@H](O)[C@@H](OC)C(=O)[C@H](C)C[C@H](C)/C=C/C=C/C=C/1C` [Deforolimus], 7 to 15 µM; that for `Cc1cc(Nc2cc(N3CCN(C)CC3)nc(/C=C/c3ccccc3)n2)n[nH]1` [ENMD-2076], under 7 µM. As to `Cn1cc(C2=C(c3cn(C4CCN(Cc5ccccn5)CC4)c4ccccc34)C(=O)NC2=O)c2ccccc21` [Enzastaurin], the EC50 is under 7 µM. With `CO[C@H]1C[C@@H]2CC[C@@H](C)[C@@](O)(O2)C(=O)C(=O)N2CCCC[C@H]2C(=O)O[C@H]([C@H](C)C[C@@H]2CC[C@@H](OCCO)[C@H](OC)C2)CC(=O)[C@H](C)/C=C(\C)[C@@H](O)[C@@H](OC)C(=O)[C@H](C)C[C@H](C)/C=C/C=C/C=C/1C` [Everolimus (RAD001), Everolimus] the figure was over 15 µM; with `C[C@@H](Oc1cc(-n2cnc3ccc(CN4CCN(C)CC4)cc32)sc1C(N)=O)c1ccccc1C(F)(F)F` [GSK461364], under 7 µM. On to `O=C1NC(=O)C(Cc2ccc3nccc(-c4ccncc4)c3c2)S1` (stereo not shown) [GSK1059615], for which the EC50 is under 7 µM. On to `CCS(=O)(=O)Nc1ccc2c(c1)/C(=C(/Nc1ccc(CN3CCCCC3)cc1)c1ccccc1)C(=O)N2` [Hesperadin], for which the EC50 lay in the range of 7 to 15 µM. With `Nc1nc(Nc2ccc(S(N)(=O)=O)cc2)nn1C(=O)c1c(F)cccc1F` [JNJ-7706621], the EC50 lay within 7 to 15 µM.

`COc1ccc(-c2ccc3c(N4CCOCC4)nc(N4C[C@@H](C)O[C@@H](C)C4)nc3n2)cc1CO` [KU0063794]: the EC50 is under 7 µM.

For the compound `O=c1cc(-c2cccc3c2Sc2ccccc2S3)oc(N2CCOCC2)c1` [KU-55933], the EC50 was under 7 µM.

In the case of `C[C@@H]1CN(CC(=O)Nc2ccc3c(c2)Cc2cccc(-c4cc(=O)cc(N5CCOCC5)o4)c2S3)C[C@H](C)O1` [KU-60019], the EC50 was over 15 µM. As for `COc1cc2nccc(Oc3ccc(NC(=O)Nc4ccc(F)cc4F)c(F)c3)c2cc1OC` [Ki8751], the EC50 is under 7 µM.

For `CC(C)(C)Cn1c(N)nc2ccc(-c3[nH]c(C(C)(C)C)nc3-c3ccc(F)cc3)nc21` [LY2228820], the EC50 was under 7 µM. The result for `Cc1cc(Nc2cc(CN3CCOCC3)c3nc(C)c(Cc4ccc(Cl)cc4F)n3n2)[nH]n1` [LY2784544] reads under 7 µM.

In the case of `CS(=O)(=O)CCNCc1ccc(-c2ccc3ncnc(Nc4ccc(OCc5cccc(F)c5)c(Cl)c4)c3c2)o1` [Lapatinib Ditosylate], the EC50 is under 7 µM. With `NC1(c2ccc(-c3nc4ccn5c(=O)[nH]nc5c4cc3-c3ccccc3)cc2)CCC1` [MK-2206] the figure was 7 to 15 µM. With `Cn1c(=O)n(-c2ccc(C(C)(C)C#N)cc2)c2c3cc(-c4cnc5ccccc5c4)ccc3ncc21` [NVP-BEZ235] the figure was under 7 µM; with `COc1cc(N2CCC(N3CCN(C)CC3)CC2)ccc1Nc1ncc(Cl)c(Nc2ccccc2S(=O)(=O)C(C)C)n1` [NVP-TAE684], under 7 µM; with `CCOc1cc2ncc(C#N)c(Nc3ccc(OCc4ccccn4)c(Cl)c3)c2cc1NC(=O)/C=C/CN(C)C` [Neratinib], over 15 µM.

For the compound `O=C(NOC[C@H](O)CO)c1ccc(F)c(F)c1Nc1ccc(I)cc1F` [PD0325901], the EC50 is over 15 µM.

In the case of `C[C@@H](Oc1cc(-c2cnn(C3CCNCC3)c2)cnc1N)c1c(Cl)ccc(F)c1Cl` [PF-02341066], the EC50 is under 7 µM.

Consider `Oc1cccc(-c2nc(N3CCOCC3)c3oc4ncccc4c3n2)c1` [PI103], for which the EC50 was under 7 µM. Consider `Cc1ccc([N+](=O)[O-])cc1S(=O)(=O)N(C)/N=C/c1cnc2ccc(Br)cn12` [PIK75], for which the EC50 is under 7 µM.

Regarding `O=C1c2ccccc2-c2n[nH]c3cccc1c23` [SP600125], the EC50 was over 15 µM. The result for `CCN(CC)CCNC(=O)c1c(C)[nH]c(/C=C2\C(=O)Nc3ccc(F)cc32)c1C` [Sunitinib Malate] reads under 7 µM.

Consider `Cc1cc(C(C)Nc2ccccc2)c2nc(N3CCOCC3)cc(=O)n2c1` (stereo not shown) [TGX 221], for which the EC50 was under 7 µM. Take `CO[C@H]1C[C@@H]2CC[C@@H](C)[C@@](O)(O2)C(=O)C(=O)N2CCCC[C@H]2C(=O)O[C@H]([C@H](C)C[C@@H]2CC[C@@H](OC(=O)C(C)(CO)CO)[C@H](OC)C2)CC(=O)[C@H](C)/C=C(\C)[C@@H](O)[C@@H](OC)C(=O)[C@H](C)C[C@H](C)/C=C/C=C/C=C/1C` [Temsirolimus]: the EC50 lay within 7 to 15 µM. The result for `COc1cc2c(Nc3ccc(Br)cc3F)ncnc2cc1OCC1CCN(C)CC1` [Vandetanib] reads under 7 µM; that for `CCC1=C[C@@H]2CN(C1)Cc1c([nH]c3ccccc13)[C@@](C(=O)OC)(c1cc3c(cc1OC)N(C)[C@H]1[C@@](O)(C(=O)OC)[C@H](OC(C)=O)[C@]4(CC)C=CCN5CC[C@]31[C@@H]54)C2` [Vinorelbine], under 7 µM.
